In patent publication US8404704B2 (Alfa Wassermann S.p.A., priority 2003, dated 2013):

Legend:
[1] = Reversible conversion of polymorphic forms with water content; assay type: physicochemical; details: water absorbed from atmospheric humidity
Source text: The product is hygroscopic and the obtained polymorphic form is reversible: the polymorphic form α absorbs water from atmospheric humidity, depending on the relative humidity and the exposure time. When the water content absorbed by the polymorphic form α becomes higher than 4.5%, polymorphous a converts to polymorphous β. This in its turn loses part of water by drying, changing into the polymorphic form α when a water content between […] is reached.

[2] = in vivo; parameters: species or system Beagle female dogs; details: dog; for Tmax / AUC(0-t) / AUC(0-inf) / Cmax: female, beagle, po; for AUC(0-t): AUC0-24 h; for AUC(0-inf): AUC0-inf
Procedure: Sixteen 20 week pure-bred Beagle female dogs weighing between 5.0 and 7.5 kg, have been divided into four groups of four dogs.
Each sample was transferred into a heparinized tube and was centrifuged; the plasma was divided into 500 μl two aliquots and frozen at −20° C.
(§1) Tmax=time at which the Cmax is reached;
(§2) AUC=area under the concentration-time curve calculated through the linear trapezoidal rule.

[3] = in vivo; parameters: species or system Beagle female dogs; details: female, beagle, dog, po; for Tmax: tmax (characterising range of the form)
Procedure: Twelve 20 week pure-bred Beagle female dogs weighing between 5.0 and 7.5 kg, have been divided into three groups of four dogs.
Each sample was transferred into an heparinized tube and was centrifuged; the plasma was divided into two 500 μl aliquots and frozen at −20° C.
as §1, §2

[4] = Intrinsic dissolution test (USP 27 monograph 1087); assay type: physicochemical; details: phosphate buffer pH 7.4, 37°C; SLS 0.1%, 0.3%, 0.45% and absent
[5] = Intrinsic dissolution test (USP 27 monograph 1087); assay type: physicochemical; details: 0.1M aqueous phosphate buffer pH 7.4 with 0.45% sodium lauryl sulphate, 37°C
Source text: The die-holder containing the compacted pellet was then mounted on a laboratory stirring device, immersed in a dissolution medium and rotated by means of the stirring device.
A compacted pellet was formed in the die with a single face of defined area exposed on the bottom of the die so that from 50% to 75% of the compacted pellet could dissolve in an appropriate dissolution medium.
The holder containing the die was mounted on a laboratory stirring device, immersed in a glass vessel containing a dissolution medium and rotated at a rotation speed of 100 rpm by means of the stirring device, while keeping the temperature of the dissolution medium at 37±0.5° C. The dissolution medium contained in the glass vessel consisted of 1000 ml of 0.1M aqueous phosphate buffer pH 7.4 containing 4.5 g of sodium lauryl sulphate (SLS) and was kept at 37±0.5° C. for the whole duration of the test.

Q: With CO[C@H]1/C=C/O[C@@]2(C)Oc3c(C)c(O)c4c(O)c(c5c(nc6cc(C)ccn65)c4c3C2=O)NC(=O)/C(C)=C\C=C\[C@H](C)[C@H](O)[C@@H](C)[C@@H](O)[C@@H](C)[C@H](OC(C)=O)[C@@H]1C [rifaximin α, Rifaximin] as the compound, how does the “water content above which form α converts to form β” value [1] read?
A: higher than 4.5%

Q: What about the Tmax ([2]; 100 mg/kg, tmax) of the same compound?
A: 2.5 h

Q: What about the “AUC0-24h (characterising range of the form)” value [3] of the same compound?
A: 0 to 100 ng·h/mL

Q: And the “AUC0-inf (characterising range of the form)” value (from here on “AUC0-inf”) [3]?
A: 10 to 24 ng·h/mL

Q: And the “Cmax (characterising range of the form)” value [3]?
A: 0.0 to 10 ng/mL

Q: And the “AUC0-inf” value ([3]; 100 mg/kg)?
A: 0 to 110 ng·h/mL

Q: And the “Cmax (characterising range of the form)” value ([3]; 100 mg/kg)?
A: 0.0 to 5.5 ng/mL

Q: What about the “tmax (characterising range of the form)” value ([3]; 100 mg/kg) of the same compound?
A: 1.0 to 6 h

Q: And the Tmax [3]?
A: 1 to 6 h

Q: And the “disintegration of the compacted pellet” value [4]?
A: ≤ 10 min

Q: Which results are given for CO[C@H]1/C=C/O[C@@]2(C)Oc3c(C)c(O)c4c(O)c(c5c(nc6cc(C)ccn65)c4c3C2=O)NC(=O)/C(C)=C\C=C\[C@H](C)[C@H](O)[C@@H](C)[C@@H](O)[C@@H](C)[C@H](OC(C)=O)[C@@H]1C [rifaximin β, Rifaximin]?
A: AUC0-24h (characterising range of the form) [3]: 0 to 40 ng·h/mL; AUC0-inf (characterising range of the form) [3]: 0 to 45 ng·h/mL; Cmax (characterising range of the form) [3]: 0.0 to 40 ng/mL; tmax (characterising range of the form) [3]: 1 to 6 h; AUC0-inf (characterising range of the form) ([3]; 100 mg/kg): 0.0 to 50 ng·h/mL; Cmax (characterising range of the form) ([3]; 100 mg/kg): 0.0 to 3.7 ng/mL; AUC(0-t) ([3]; 100 mg/kg, AUC0-t (characterising range of the form)): < 40 ng·h/mL; Tmax ([3]; 100 mg/kg): 1 to 6 h; Intrinsic dissolution rate [5]: 0.0147 mg/min/cm^2; Rifaximin dissolved ([5]; 15 min): 0.28 mg/cm^2; Rifaximin dissolved ([5]; 30 min): 0.50 mg/cm^2; Rifaximin dissolved ([5]; 45 min): 0.72 mg/cm^2; Rifaximin dissolved ([5]; 60 min): 0.94 mg/cm^2

Q: For CO[C@H]1/C=C/O[C@@]2(C)Oc3c(C)c(O)c4c(O)c(c5c(nc6cc(C)ccn65)c4c3C2=O)NC(=O)/C(C)=C\C=C\[C@H](C)[C@H](O)[C@@H](C)[C@@H](O)[C@@H](C)[C@H](OC(C)=O)[C@@H]1C [rifaximin γ, Rifaximin], which “dose dependency of exposure (in words)” value [2] is on record?
A: tended to increase in an over-proportional way compared to the administered dose

Q: What about the AUC(0-t) ([2]; 25 mg/kg) of the same compound?
A: 304 ng·h/mL

Q: And the AUC(0-inf) ([2]; 25 mg/kg)?
A: 548 ng·h/mL

Q: What about the Cmax ([2]; 25 mg/kg) of the same compound?
A: 114 ng/mL

Q: And the Tmax ([2]; 25 mg/kg, tmax)?
A: 1.5 h

Q: What about the Tmax ([2]; 100 mg/kg) of the same compound?
A: 2 h

Q: And the AUC(0-t) ([2]; 300 mg/kg)?
A: 25000 ng·h/mL

Q: What about the AUC(0-inf) ([2]; 300 mg/kg) of the same compound?
A: 25500 ng·h/mL

Q: What about the Cmax ([2]; 300 mg/kg) of the same compound?
A: 3150 ng/mL

Q: And the Tmax ([2]; 300 mg/kg, tmax)?
A: 3 h

Q: And the “AUC0-inf” value [3]?
A: 0.0 to 22000 ng·h/mL

Q: What about the “Cmax (characterising range of the form)” value ([3]; 100 mg/kg) of the same compound?
A: 0.0 to 5000 ng/mL

Q: What about the “tmax (characterising range of the form)” value ([3]; 100 mg/kg) of the same compound?
A: 1.0 to 6.0 h

Q: What about the AUC(0-t) ([3]; 100 mg/kg, AUC0-24h (characterising range of the form)) of the same compound?
A: < 22000 ng·h/mL

Q: What about the Cmax ([3]; Cmax) of the same compound?
A: 1080 ng/mL

Q: And the Intrinsic dissolution rate [5]?
A: 0.1444 mg/min/cm^2

Q: And the Rifaximin dissolved ([5]; 15 min)?
A: 2.46 mg/cm^2

Q: And the Rifaximin dissolved ([5]; 30 min)?
A: 4.52 mg/cm^2

Q: And the Rifaximin dissolved ([5]; 45 min)?
A: 6.44 mg/cm^2

Q: What about the Rifaximin dissolved ([5]; 60 min) of the same compound?
A: 9.04 mg/cm^2
